Measured values: patent publication US11116778B2, “Prodrugs of ALOX-15 inhibitors and methods of using the same” (EMPIRICO INC., priority 2019, dated 2021)
Read-outs that look alike come from different tables or passages of the source.

What was measured:
ALOX15 mRNA = ALOX15 mRNA by RT-qPCR in rabbit nasal mucosa; assay type: in vivo; conditions: rostral and caudal regions; rabbits, compound 5 10 mM intranasal
Experimental: Six (6) female NZW rabbits were employed in this study. Rabbits were obtained from Covance (Denver Pa.). Rabbits were between approximately 10 and 12 months of age at the time of study start. At time point 0, all animals received 50 μL of solution containing rabbit IL4 (RND Systems/Biotechne) and human IL13 (PreproTech) at a concentration of 0.25 mg/mL each in 0.5×PBS containing 12.5 mg/mL BSA per nostril. This was administered intranasally via a venous catheter attached to a micropipette. The animal was positioned in a supine manner and the venous catheter inserted into the nostril. The volume was introduced into the nasal cavity and the same procedure was repeated with the other nostril. […]
Relative ALOX15 and POSTN mRNA levels in nasal mucosa were measured by RT-qPCR. […] The level of ALOX15 or POSTN mRNA from each sample was measured in triplicate by real-time qPCR on an Applied Biosystems 7500 Fast Real-Time PCR machine using the TaqMan Gene Expression Assay for rabbit ALOX15 (ThermoFisher, assay #Oc03823548_s1). The level of GAPDH mRNA was measured in biplex reactions using TaqMan Gene Expression Assay (ThermoFisher, assay #Oc03823402_g1) and used to determine relative ALOX15 mRNA levels in each well using the delta-delta Ct method. […] Relative POSTN mRNA levels were measured as above using TaqMan Gene Expression Assay specific for rabbit POSTN mRNA (ThermoFisher, assay #Oc06804808_s1). […]

[1] = Solubility assessment in water; assay type: physicochemical; conditions: for solubility: thermodynamic from solid
Experimental: Water was added slowly to 4.7 mg of compound 5 until 4.7 ml of water was added at which point the phosphate fully dissolved. The pH of the solution was estimated using litmus paper and estimated to be <3. Without a counterion, the molecular weight of the phosphate is 418 m. Therefore, at 1 mg/ml, the concentration is 2.4 mM.
For comparison, compound 3 is soluble to 0.4 μg/ml (Han et al FASEB J. 2017 31(2):491-504), which at a molecular weight of 308 is 1.3 μM.
Compound 5 was suspended in water (at weight to give a final concentration of 10 mM) and then 2 eq NaHCO3 was added.

[2] = biological target: T1, alkaline phosphatase (Phosphatase, Alkaline, Calf Intestine) (Bos taurus, UniProt P19111); experiment: in vitro; assay type: in vitro ADME
T1 construct: purchased EMD Millipore 524572
T1 sequence (P19111 20-506): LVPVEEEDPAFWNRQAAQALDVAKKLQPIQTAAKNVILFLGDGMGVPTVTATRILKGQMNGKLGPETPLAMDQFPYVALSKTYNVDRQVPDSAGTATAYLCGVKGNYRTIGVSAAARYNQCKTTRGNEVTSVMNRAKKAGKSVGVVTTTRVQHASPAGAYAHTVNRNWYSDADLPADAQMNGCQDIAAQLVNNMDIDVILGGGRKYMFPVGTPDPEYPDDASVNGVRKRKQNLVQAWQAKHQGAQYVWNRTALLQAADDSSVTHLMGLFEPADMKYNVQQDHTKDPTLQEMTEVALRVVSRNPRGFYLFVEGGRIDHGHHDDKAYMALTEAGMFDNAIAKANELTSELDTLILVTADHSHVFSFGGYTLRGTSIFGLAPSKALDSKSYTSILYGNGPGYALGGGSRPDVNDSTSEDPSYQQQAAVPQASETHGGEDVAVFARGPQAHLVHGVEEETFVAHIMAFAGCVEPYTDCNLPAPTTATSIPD
Experimental: (§1) To determine if there was effect of addition phosphatase to the phosphate, 30 units of alkaline phosphatase (EMD Millipore Phosphatase, Alkaline, Calf Intestine catalog number 524572) was added to compound 5 and the UV spectrum (210-600 nm) was measured before and after addition of phosphatase. The was a shift in the absorbance maximum from 250 to 260 nm. The ratio of 250/260 went from 0.924 to 1.067 after phosphatase treatment.
(§2) Phosphatase treatment was repeated with 0.1 unit of phosphatase (56 ug) and 0.6 mM compound 5 at a volume of 100 uL (100 mM Tris pH 8.8, 5 mM MgCl2) and monitored as function of time. […] A unit is defined as the amount that can hydrolyze 1 μmol/min of p-nitrophenyl phosphate (PNP). Meaning that 0.1 unit of enzyme was hydrolyzing 0.015 units of phosphate: a ˜6.6 fold decrease in activity relative to PNP.

alkaline phosphatase = biological target: T2, alkaline phosphatase (Bos taurus, UniProt P19111); experiment: in vitro; assay type: in vitro ADME, Calf; conditions: calf (bovine), pH 8.8
T2 construct: purchased EMD Millipore 524572
T2 sequence (P19111 20-506): as above
Experimental: as §1, §2

With `O=C(Nc1ccc(F)cc1Cl)c1nn(COP(=O)(O)O)c(Cl)c1Cl` [compound 5, (4,5-dichloro-3-((2-chloro-4-fluorophenyl)carbamoyl)-1H-pyrazol-1-yl)methyl dihydrogen phosphate] the “relative level of ALOX15 mRNA in nasal mucosa versus vehicle (FIG. 11)” value (ALOX15 mRNA) was “lower”, the “pH of the solution” value ([1]; 1 mg/ml in water, estimated using litmus paper) was less than 3 and the “increase in water solubility above compound 3” value ([1]; disodium salt) was 7,200 fold. The “further increase in solubility as a sodium salt” value ([1]; disodium salt versus free phosphoric acid) was 4 fold, the “increase in water solubility over compound 3” value ([1]; free phosphoric acid) was roughly 1800 fold and the solubility ([1]; free phosphoric acid, 4.7 mg fully dissolved in 4.7 ml water, read-out: solubility in water) was 1000 µg/mL. The solubility ([1]; water with 2 eq NaHCO3, aqueous buffer, disodium salt, 2 eq NaHCO3 added, read-out: concentration in water giving a clear solution) was no less than 10000 µM, the solubility ([1]; water, free phosphoric acid, at 1 mg/ml, molecular weight 418, read-out: solubility in water, concentration) was 2400 µM and the “decrease in phosphatase activity relative to PNP (p-nitrophenyl phosphate)” value ([2]; 0.1 unit of enzyme hydrolyzing 0.015 units of phosphate) was roughly 6.6 fold. For the same molecule, the “rate at which the phosphatase cleaved the phosphate” value ([2]; 0.1 unit phosphatase, 0.6 mM compound 5, 100 uL) was 0.015 µmol/min and the half-life at 0.6 mM (alkaline phosphatase) was 2 min.
